In patent publication US9067871B2, “Aminotetraline derivatives, pharmaceutical compositions containing them, and their use in therapy” (ABBVIE DEUTSCHLAND GMBH & CO KG, priority 2009, dated 2015):
Counter-ions that a name gives are not always drawn.

Biological target: human GlyT1c transporter (Homo sapiens (Human), UniProt P48067)
Assay: Radioligand binding assay using recombinant CHO cell membranes expressing human GlyT1
Settings: human GlyT1c-expressing CHO cell membranes; read-out: radioligand binding Kiapp
From the text: 2. Radioligand binding assays using recombinant CHO cell membranes expressing human GlyT1: […]

Sequence of human GlyT1c transporter (P48067 whole entry): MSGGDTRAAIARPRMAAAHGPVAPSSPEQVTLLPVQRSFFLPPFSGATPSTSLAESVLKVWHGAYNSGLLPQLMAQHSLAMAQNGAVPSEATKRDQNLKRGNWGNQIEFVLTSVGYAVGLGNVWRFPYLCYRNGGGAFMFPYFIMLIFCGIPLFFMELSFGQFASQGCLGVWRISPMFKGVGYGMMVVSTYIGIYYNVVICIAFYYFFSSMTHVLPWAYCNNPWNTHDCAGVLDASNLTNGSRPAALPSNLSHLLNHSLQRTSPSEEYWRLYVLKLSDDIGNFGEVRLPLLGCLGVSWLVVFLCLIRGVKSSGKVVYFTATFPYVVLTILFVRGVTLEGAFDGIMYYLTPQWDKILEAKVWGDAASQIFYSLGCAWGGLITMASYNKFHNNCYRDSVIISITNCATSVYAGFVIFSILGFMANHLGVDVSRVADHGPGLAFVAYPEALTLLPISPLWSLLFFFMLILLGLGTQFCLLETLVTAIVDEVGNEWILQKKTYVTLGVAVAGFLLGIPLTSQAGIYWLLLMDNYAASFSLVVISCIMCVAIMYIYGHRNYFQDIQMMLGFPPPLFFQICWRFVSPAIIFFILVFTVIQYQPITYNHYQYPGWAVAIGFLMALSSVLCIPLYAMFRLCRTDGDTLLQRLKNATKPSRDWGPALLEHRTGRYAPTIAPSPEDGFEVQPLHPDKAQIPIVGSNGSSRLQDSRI

Ki [µM] | SMILES
≤ 0.1 | Cn1cnc(S(=O)(=O)NCCOc2ccc3c(c2)C(Cc2cccc(C#N)c2)C(N2CCCC2)CC3)c1 (stereo not shown) [Example 153, N-(2-{[8-(3-Cyanobenzyl)-7-(pyrrolidin-1-yl)-5,6,7,8-tetrahydronaphthalen-2-yl]oxy}ethyl)-1-methyl-1H-imidazole-4-sulfonamide]
≤ 0.1 | O=S(=O)(NCCOc1ccc2c(c1)C(Cc1ccccc1)C(N1CCC1)CC2)C1CCC1 (stereo not shown) [Example 147, N-(2-{[7-(Azetidin-1-yl)-8-benzyl-5,6,7,8-tetrahydronaphthalen-2-yl]oxy}ethyl)cyclobutanesulfonamide]
≤ 0.1 | CCNC1CCc2ccc(CCCNS(=O)(=O)CC3CC3)cc2C1Cc1cccc(F)c1 (stereo not shown) [Example 221, C-Cyclopropyl-N-{3-[7-ethylamino-8-(3-fluoro-benzyl)-5,6,7,8-tetrahydro-naphthalen-2-yl]-propyl}-methanesulfonamide hydrochloride]
≤ 0.1 | CCCS(=O)(=O)NCCOc1ccc2c(c1)C(Cc1ccc(F)c(Cl)c1)C(N)CC2 (stereo not shown) [Example 120, N-(2-{[7-Amino-8-(3-chloro-4-fluorobenzyl)-5,6,7,8-tetrahydronaphthalen-2-yl]oxy}ethyl)propane-1-sulfonamide hydrochloride]
≤ 0.1 | CN(CCOc1ccc2c(c1)C(Cc1ccccc1)C(N1CCCC1)CC2)S(=O)(=O)CC1CC1 (stereo not shown) [Example 127, N-(2-{[8-Benzyl-7-(pyrrolidin-1-yl)-5,6,7,8-tetrahydronaphthalen-2-yl]oxy}ethyl)-1-cyclopropyl-N-methylmethanesulfonamide hydrochloride]
≤ 0.1 | CCCS(=O)(=O)NCCCc1ccc2c(c1)C(Cc1ccc(F)c(F)c1)C(N)CC2 (stereo not shown) [Example 206, N-{3-[7-Amino-8-(3,4-difluoro-benzyl)-5,6,7,8-tetrahydronaphthalen-2-yl]propyl}propane-1-sulfonamide hydrochloride]
≤ 1 | CCCCCS(=O)(=O)NCCOc1ccc2c(c1)C(Cc1ccc(Cl)c(Cl)c1)C(N)CC2 (stereo not shown) [Example 114, N-(2-(7-Amino-8-(3,4-dichlorobenzyl)-5,6,7,8-tetrahydronaphthalen-2-yloxy)ethyl)pentane-1-sulfonamide hydrochloride]
≤ 0.1 | CN(CCOc1ccc2c(c1)C(Cc1ccccc1)C(N1CCCC1)CC2)S(=O)(=O)c1cnn(C)c1 (stereo not shown) [Example 111, 1-Methyl-1H-pyrazole-4-sulfonic acid [2-(8-benzyl-7-pyrrolidin-1-yl-5,6,7,8-tetrahydronaphthalen-2-yloxy)-ethyl]-methyl-amide hydrochloride]
≤ 0.01 | NC1CCc2ccc(OCCNS(=O)(=O)CC3CC3)cc2C1Cc1ccc(Cl)c(Cl)c1 (stereo not shown) [Example 95, N-{2-[7-Amino-8-(3,4-dichloro-benzyl)-5,6,7,8-tetrahydro-naphthalen-2-yloxy]-ethyl}-C-cyclopropyl-methanesulfonamide hydrochloride]
≤ 0.1 | O=S(=O)(CC1CC1)NCCOc1ccc2c(c1)C(Cc1ccc(Cl)c(Cl)c1)C(N1CCC1)CC2 (stereo not shown) [Example 135, N-(2-{[7-(Azetidin-1-yl)-8-(3,4-dichlorobenzyl)-5,6,7,8-tetrahydronaphthalen-2-yl]oxy}ethyl)-1-cyclopropylmethanesulfonamide]
≤ 0.01 | CN(CCOc1ccc2c(c1)C(Cc1ccccc1)C(N)CC2)S(=O)(=O)CC1CC1 (stereo not shown) [Example 130, N-[2-(7-Amino-8-benzyl-5,6,7,8-tetrahydro-naphthalen-2-yloxy)-ethyl]-C-cyclopropyl-Nmethyl-methanesulfonamide hydrochloride]
≤ 10 | CCCS(=O)(=O)NCC#Cc1ccc2c(c1)C(Cc1ccccc1)C(NC(C)=O)CC2 (stereo not shown) [Example 276, N-[1-Benzyl-7-{3-[(propylsulfonyl)amino]prop-1-yn-1-yl}-1,2,3,4-tetrahydronaphthalen-2-yl]acetamide]
≤ 0.1 | NC1CCc2ccc(CCCNS(=O)(=O)CC3CC3)cc2C1Cc1ccc(F)c(F)c1 (stereo not shown) [Example 204, N-{3-[7-Amino-8-(3,4-difluoro-benzyl)-5,6,7,8-tetrahydro-naphthalen-2-yl]-propyl}-C-cyclopropyl-methanesulfonamide hydrochloride]
